Measured values from patent US9388146B2, “Crystalline forms of tyrosine kinase inhibitors and their salts” (Purdue Pharma L.P., priority 2013, dated 2016).
Read-outs that look alike come from different tables or passages of the source.

What was measured:
[1] = Rat pharmacokinetics (plasma, LC-MS/MS, non-compartmental analysis); format: in vivo; conditions: for bioavailability: oral
Protocol: (§1) Compound I was dosed to nonfasted male CD IGS rats (weighting 180-250 g, Charles River Laboratories) by single intravenous (IV, n=3/group) or oral gavage (PO, n=4/group, including control rat group for drug-free blood and brain collection) administration at a nominal dose levels of 3 mg/kg (IV) or 5 mg/kg (IV) and 10, 50, 100 mg/kg (PO) respectively. Compound was formulated in either DMSO/Solutol® HS 15/phosphate buffered saline, pH 7.4 (PBS) for both IV and PO dosing, or 10% (w/v) Povidone K12 in water for IV dosing or 10% (w/v) Povidone K25 in water for PO dosing, or 18% (w/v) CrosPovidone in water for PO dosing. An intravenous profile was obtained by taking serial or terminal blood samples at 3, 10, 30, 60, 120, 240, 360, 1440 min post dose. An oral profile was obtained by taking serial or terminal blood samples at 10, 30, 60, 120, 240, 360, 480, 1440 min post dose.
(§2) Animals were sedated under general inhalant anesthesia (3% isoflurane) for blood collection by cardiac puncture. Blood aliquots (300-400 μL) were collected in tubes coated with lithium heparin, mixed gently, then kept on ice and centrifuged at 2,500×g for 15 minutes at 4° C., within 1 hour of collection. For control animals, blood was collected by cardiac puncture. The plasma was then harvested and kept frozen at −20° C. until further processing. Plasma Sample Collection from Cannulated Rats. Blood collection was carried out from the jugular vein catheter. Blood aliquots (300-400 μL) were collected in tubes coated with lithium heparin, mixed gently, then kept on ice and centrifuged at 2,500×g for 15 minutes at 4° C., within 1 hour of collection. For control animals, blood was collected by cardiac puncture. The plasma was then harvested and kept frozen at −20° C. until further processing.
(§3) Plasma and brain samples were subjected to quantitative analysis by LC-MS/MS using compound-specific mass transitions. Drug concentration-time profiles were generated and non-compartmental PK analysis (using WinNonlin) used to generate estimates of half-life (T1/2), clearance, volume of distribution (Vss), and oral bioavailability (F %) (Gabriesson, J. and Weiner, D. Pharmacokinetic and Pharmacodynamic Data Analysis: Concepts and Applications. Swedish Pharmaceutical Press. 1997). The concentrations of the test compound in brain (ng/g brain tissue) and in plasma (ng/mL) as well as the ratio of the brain concentration and the plasma concentration at each time point were determined and reported.

[2] = system: CFA-induced rat inflammatory pain; test: Rat CFA-induced inflammatory pain model; format: in vivo; conditions: 50 μL of 1 mM s.c. into paw 3 hours after CFA, FIG. 1
Protocol: Hyperalgesia was induced by subcutaneously injecting 50 μL of CFA (Sigma-Aldrich, St. Louis, Mo., USA) into the plantar surface of the left hind paw of the rats using a 30-gauge hypodermic needle under sevoflurane anesthesia. The classical signs of inflammation, including edema and redness, for up the last day of tests were recorded. To assess the effect of test article on CFA-induced inflammatory pain, the rats were anesthetized with sevoflurane 3 hours after CFA injection and then injected 50 μL of either 1 mM test article (n=6) or Saline (n=4) subcutaneously (S.C.) into the same site as the CFA injection, using a 30-gauge hypodermic needle under sevoflurane anesthesia, according to published method (Ueda K., et al, J Pharmacol. Sci., 2010; 112(4):438-43). Paw withdrawal latencies (thermal hyperalgesia) are measured before and at […] 2, 4, and 7 days after CFA injection. Mechanical thresholds were also measured in the same way with either Formula 1 compound (n=6) or Saline (n=4) at similar different time points (for example, 1, 3 hour and 3 days). The noxious heat and mechanical thresholds were separately measured in each group of rats. The threshold was measured 3-5 times in each rat and then averaged. Stimulus interval was 5 min.

[3] = Rat brain and plasma concentration after IV dosing; format: in vivo; conditions: male, CD IGS, dose 3 and 5 mg/kg
Protocol: as §1, §2
Immediately after the blood sampling, rats were decapitated and the whole brains were quickly removed, rinsed with cold saline (0.9% NaCl, g/mL), surface vasculature ruptured, blotted with dry gauze, weighed and kept on ice until further processing within 1 hour of collection. Each brain was homogenized in 3 mL cold phosphate-buffered saline, pH 7.4 for 10 seconds on ice using Power Gen 125. The brain homogenate from each brain was then stored at −20° C. until further processing.
as §3

[4] = system: SNL rats; test: Spinal nerve ligation (SNL) mono-neuropathic pain model in rat; format: in vivo; conditions: oral administration
Protocol: The surgical procedure will be performed according to the method firstly described by Kim and Chung (Kim S H, Chung J M. Pain. 1992; 50(3):355-63.). This procedure will result in tactile allodynia in the left hindpaw. […] The dose-response anti-allodynia effects of test compound: on day 14 after surgery, rats were treated with test article at one of four doses, vehicle or positive control by oral gavage, and PWT was determined by calibrated von Frey filaments at time points of 0 (right before the drug dosing, Pre-Dose Baseline), 0.5, 1, 2, 4 and 6 hr. The anti-allodynia effects of repeated administration of test article: Administration of test article was started on day 7 after surgery, once a day for 7 days. PWT was determined by calibrated von Frey filaments, 2 hour after test article dosing each day. After 7 days dosing, the measurement were continued, every other day without compound dosing for another 7 days. PWT was determined at the time points as given above.

[5] = Accelerated stability tests by XRPD and Raman; format: physicochemical; conditions: 1 week
Protocol: Approximately 2 mg of sample was gently compressed on the XRPD zero back ground single obliquely cut silica sample holder. The sample was then loaded into a D/MAX 2200 X-ray powder diffractometer (Rigaku) or a Philips X-Pert MPD diffractometer and analyzed using the following experimental conditions (Tube anode: Cu; Generator tension: 40 kV; Tube current: 40 mA; Wavelength alpha1: 1.54056 Å; Wavelength alpha2: 1.5444 Å; Start angle [2 theta]: 5; End angle [2 theta]: 50; and Continuous scan). For suspected novel forms a slightly slower scan speed was used over a range of 4-40° 2θ.
Samples were analyzed by a Nicolet Almega XR Dispersive Raman Microscope for its Raman spectrum using the following conditions (Exposure Time: 1.0 s; Acquisition No: 10; Pinhole Size: 25, 50 or 100 μm; Wavelength range: 2000˜300 cm^−1 (single grating); Laser: […] 100% power; Objective: 20×/0.40 or 50×/0.75 (magnifier/numerical aperture number)). Then the measured Raman spectra were corrected by baseline subtraction using the software OMNIC™ v7.3.

[6] = system: CCI rats; test: Chronic constriction injury (CCI) model of neuropathic pain in rat; format: in vivo; conditions: for observed side effects (drowsiness, motor incoordination, abnormality): oral dosing
Text: The CCI model is one of the most commonly used mono-neuropathic pain model firstly described in details by Bennett and Xie (Bennett G J, Xie Y K. Pain. 1988; 33(1):87-107). It mimics important clinical chronic pain symptoms such as mechanical allodynia and thermal hyperalgesia. Chronic constriction injury of the sciatic nerve was produced by tying four loose ligatures around the left sciatic nerve according to the method of Bennett and Xie. […] Calibrated von Frey filaments were used to determine the lowest mechanical (tactile) threshold required to evoke a brisk paw withdrawal reflex in the rat hindpaws. Rats were allowed to acclimatize in wire mesh cages for 15-20 min prior to von Frey testing. Assessment of paw withdrawal thresholds (PWTs) using von Frey filaments was undertaken prior to CCI-surgery (pre-surgery baseline on day 0). Before the drug dosing on day 14, the pre-dose baseline was recorded for each rat. […] Drug-naïve CCI-rats (n=4-6 per group) were used. The oral (PO) gavage vehicle was either 10% (w/v) Povidone K25 in water for PO dosing, or 18% (w/v) CrosPovidone in water for PO dosing, or 0.5% CMC-Na/0.1% Tween 80 in distilled water for PO dosing. The positive control gabapentin was dissolved in the vehicle and orally given at 100 mg/kg (by oral gavage). Test article was dissolved or suspended in the vehicle and orally given at 25, 50, 100 and 150 mg/kg. Each CCI-rat was administered a single oral dose of test article, gabapentin or vehicle control, 2 hours before assessment of PWT.

[7] = target: TrkB (Homo sapiens, UniProt Q16620); test: PathHunter whole cell functional assay, BDNF stimulated TrkB activation; format: cell-based; conditions: triplicate
Chain of TrkB (Q16620 32-822, species assumed): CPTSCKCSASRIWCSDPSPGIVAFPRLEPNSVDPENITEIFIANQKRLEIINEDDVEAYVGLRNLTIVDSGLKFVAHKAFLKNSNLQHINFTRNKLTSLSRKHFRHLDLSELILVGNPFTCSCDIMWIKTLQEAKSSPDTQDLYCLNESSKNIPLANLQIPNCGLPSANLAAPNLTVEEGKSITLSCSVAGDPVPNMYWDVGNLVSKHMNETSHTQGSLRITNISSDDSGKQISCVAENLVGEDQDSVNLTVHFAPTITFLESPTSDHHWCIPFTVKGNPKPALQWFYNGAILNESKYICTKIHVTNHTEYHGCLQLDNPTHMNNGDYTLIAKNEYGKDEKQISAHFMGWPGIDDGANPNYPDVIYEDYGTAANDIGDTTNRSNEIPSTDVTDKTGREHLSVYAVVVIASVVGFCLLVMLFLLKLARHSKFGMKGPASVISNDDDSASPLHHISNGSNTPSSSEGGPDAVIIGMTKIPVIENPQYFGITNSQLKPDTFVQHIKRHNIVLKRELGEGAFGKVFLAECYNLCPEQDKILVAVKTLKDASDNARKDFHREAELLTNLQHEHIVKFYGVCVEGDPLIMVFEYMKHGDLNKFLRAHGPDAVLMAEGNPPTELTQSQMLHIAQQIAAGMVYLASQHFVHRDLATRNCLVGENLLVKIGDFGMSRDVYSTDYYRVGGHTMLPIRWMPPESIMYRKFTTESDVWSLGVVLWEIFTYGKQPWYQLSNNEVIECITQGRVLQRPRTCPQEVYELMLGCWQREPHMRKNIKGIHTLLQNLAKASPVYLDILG

[8] = target: TrkC (Homo sapiens, UniProt Q16288); test: PathHunter whole cell functional assay, NT3 stimulated TrkC activation; format: cell-based; conditions: triplicate
Chain of TrkC (Q16288 32-839, species assumed): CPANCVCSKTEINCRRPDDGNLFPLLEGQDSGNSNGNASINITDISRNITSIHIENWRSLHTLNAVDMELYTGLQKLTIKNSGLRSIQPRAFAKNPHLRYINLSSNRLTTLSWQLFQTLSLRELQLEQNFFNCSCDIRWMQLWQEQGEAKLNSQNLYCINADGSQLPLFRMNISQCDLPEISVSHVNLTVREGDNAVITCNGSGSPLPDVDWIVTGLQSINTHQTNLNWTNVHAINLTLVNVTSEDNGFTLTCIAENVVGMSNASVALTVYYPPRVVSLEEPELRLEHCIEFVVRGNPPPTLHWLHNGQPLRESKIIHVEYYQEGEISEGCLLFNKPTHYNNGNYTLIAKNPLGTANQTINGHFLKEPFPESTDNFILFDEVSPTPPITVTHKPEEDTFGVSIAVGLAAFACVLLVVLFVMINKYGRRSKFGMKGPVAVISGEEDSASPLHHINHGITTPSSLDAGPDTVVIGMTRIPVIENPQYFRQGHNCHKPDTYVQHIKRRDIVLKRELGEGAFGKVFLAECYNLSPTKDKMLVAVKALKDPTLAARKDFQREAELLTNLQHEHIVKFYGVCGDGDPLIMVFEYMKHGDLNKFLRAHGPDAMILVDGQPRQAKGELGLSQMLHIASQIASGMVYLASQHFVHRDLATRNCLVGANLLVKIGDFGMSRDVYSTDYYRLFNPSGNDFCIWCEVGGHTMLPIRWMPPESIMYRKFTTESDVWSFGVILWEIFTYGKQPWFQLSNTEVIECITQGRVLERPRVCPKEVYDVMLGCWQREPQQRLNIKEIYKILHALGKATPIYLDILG

[9] = male, CD IGS, plasma, IV, 3 mg/kg, mean
[10] = male, CD IGS, plasma, PO, 100 mg/kg, mean

Structure (SMILES): O=C([O-])c1ccc(Nc2cc(N3CCN(C4CCCCC4)CC3)c3noc4c3c2C(=O)c2ccccc2-4)cc1.[Na+] [Compound I, Sodium 4-((3-(4-cyclohexylpiperazin-1-yl)-6-oxo-6H-anthra[1,9-cd]isoxazol-5-yl)amino)benzoate]
- F ([1]; PO, 100 mg/kg, mean): ~100%
- clearance [1, 9]: 4 mL/min/kg
- half-life [1, 9]: 1.08 h
- Vd ([1]; male, CD IGS, plasma, IV, 3 mg/kg, mean, read-out: Vss): 0.287 L/kg
- Cmax [1, 10]: 66000 ng/mL
- half-life [1, 10]: 2.07 h
- bioavailability ([1]; male, CD IGS, plasma): 90 to 100%
- analgesic effect (thermal hyperalgesia / mechanical threshold) [2]: efficacious in relieving the pain
- concentration at 30 min ([3]; brain, 30 min, read-out: Brain concentration): 153 ng/g
- concentration at 60 min ([3]; brain, 60 min, read-out: Brain concentration): 120 ng/g
- concentration at 180 min ([3]; brain, 180 min, read-out: Brain concentration): 23 ng/g
- Kp at 30 min ([3]; brain/plasma, 30 min, read-out: Ratio Brain/Plasma): 0.014
- Kp at 60 min ([3]; brain/plasma, 60 min, read-out: Ratio Brain/Plasma): 0.018
- Kp at 180 min ([3]; brain/plasma, 180 min, read-out: Ratio Brain/Plasma): 0.019
- concentration at 30 min ([3]; plasma, 30 min, read-out: Plasma Concentration): 11300 ng/mL
- concentration at 60 min ([3]; plasma, 60 min, read-out: Plasma Concentration): 8160 ng/mL
- concentration at 180 min ([3]; plasma, 180 min, read-out: Plasma Concentration): 1830 ng/mL
- effect on mechanical allodynia (PWT, von Frey) [4]: significantly reduced mechanical allodynia
- stability as measured by XRPD and Raman ([5]; 40° C./75% RH): no instability
- stability as measured by XRPD and Raman ([5]; 80° C.): no instability
- observed side effects (drowsiness, motor incoordination, abnormality) [6]: no such effect or other abnormality was observed
- more effective in suppressing mechanical allodynia compared to gabapentin ([6]; same oral dose of 100 mg/kg): about 100%
- effect on mechanical allodynia (PWT, von Frey) ([6]; single oral dose 25, 50, 100 and 150 mg/kg, 2 hours before assessment, FIG. 2): significantly reduced mechanical allodynia

Structure (SMILES): O=C([O-])c1ccc(Nc2cc(N3CCN(C4CCCCC4)CC3)c3noc4c3c2C(=O)c2ccccc2-4)cc1.[Na+] [Form A, Sodium 4-((3-(4-cyclohexylpiperazin-1-yl)-6-oxo-6H-anthra[1,9-cd]isoxazol-5-yl)amino)benzoate]
- stability of the polymorphic form ([5]; 40° C./75% RH and 80° C.): stable polymorphic form

Structure (SMILES): NCC1(CC(=O)O)CCCCC1 [gabapentin, reference compound]
- observed side effects (drowsiness, motor incoordination, abnormality) [6]: drowsiness or motor incoordination

Structure (SMILES): O=C(O)c1ccc(Nc2cc(N3CCN(C4CCCCC4)CC3)c3noc4c3c2C(=O)c2ccccc2-4)cc1 [Compound C]
- IC50 [7]: > 10 µM
- IC50 [8]: > 10 µM

Structure (SMILES): O=C(O)c1ccc(Nc2cc(N3CCN(C4CCCCC4)CC3)c3noc4c3c2C(=O)c2ccccc2-4)cc1 [Compound 701, 4-((3-(4-cyclohexylpiperazin-1-yl)-6-oxo-6H-anthra[1,9-cd]isoxazol-5-yl)amino)benzoic acid]
- bioavailability ([1]; male, CD IGS, plasma): < 20%
